Like-named read-outs stand apart in the source and are kept apart here.
What was measured:
[1] = system: A431 cells; assay: Alamar Blue cell viability/cytotoxicity assay, A431; format: cell-based; settings: Homo sapiens
From the text: (§1) To assess the cytotoxic activity of GLY, IMD and IMZ, six cell lines, namely Caco-2 (human epithelial colorectal adenocarcinoma; Cell Lines Service (CLS), Eppelheim, Germany), HepG2 (human hepatocellular carcinoma; ATCC, Rockville, USA), A431 (human epidermoid carcinoma; CLS, Eppelheim, Germany), HaCaT (human keratinocytes, CLS, Eppelheim, Germany), SK-MEL-5 (human skin melanoma; CLS, Eppelheim, Germany), and RAW 264.7 (mouse macrophages, Abelson murine leukaemia virus-induced tumour; CLS, Eppelheim, Germany) cells, were used. All cell lines were cultured in complete culture media, composed of Dulbecco’s Modified Eagle Media (DMEM), supplemented with 1 mM L-glutamine, 10% (v/v) foetal bovine serum (FBS), and antibiotics (penicillin at 100 U/mL, and streptomycin at 100 μg/mL) and maintained in an incubator (5% CO2/95% air; 37 °C, controlled humidity). Cells were grown, in T25 culture flasks, to near confluence.
(§2) Near confluence, all cell lines, except RAW 264.7 cells, were subjected to enzymatic treatment (trypsin-EDTA) for detachment and subculture, as described by Andreani et al. and by Silva et al., which was stopped using complete culture medium (1:1, trypsin:culture media) as soon as cells were detached. RAW 264.7 cells were scratched off from the culture flasks using a cell scratcher (Orange Scientific; Braine-L’Alleud, Belgium), handling was performed, as described by Silva et al.. Once detached from the flasks, cells were gently separated and re-suspended using a Pasteur pipette, counted using an automated cell counter (TC10™, BIORAD, Lisbon, Portugal). Then, cells were re-suspended in fresh culture media (at 5 × 10^4 cells/mL) and seeded into 96-well microplates (100 µL/well) which were maintained in an incubator, for 48 h (to adhere and stabilize) before being used. For other details, see [24, 25].
(§3) Alamar Blue® (AB) assay was performed to assess the in vitro effect of the pesticides on cell viability. In summary, cells seeded into 96-well microplates were treated with various concentrations of the pesticides (GLY: 0–1 mM; IMD: 0–1 mM; IMZ: 0–0.3 mM). Test solutions were prepared in FBS-free culture media by diluting the appropriate volume of respective stock solution. A stock solution of GLY was prepared in water (at 40 mM), and stock solutions of IMD and IMZ were prepared in DMSO (at 20 mM). After 24 h or 48 h of exposure, the test solutions were removed and immediately replaced with Alamar Blue solution (100 µL/well; 10% (v/v) in FBS-free medium), followed by an additional 5 h incubation. Then, absorbance was read at 570 and 620 nm using a microplate reader (Multiskan EX; MTX Lab Systems, Inc., Bradenton, FL, USA), and the percentage of AB reduction was calculated according to manufacturers’ instructions, as described. Cell viability was calculated and expressed as percentage of control cells (non-exposed cells).

[2] = system: HaCaT cells; assay: Alamar Blue cell viability/cytotoxicity assay, HaCaT; format: cell-based; settings: Homo sapiens
From the text: as §1, §2, §3

[3] = system: SK-MEL-5 cells; assay: Alamar Blue cell viability/cytotoxicity assay, SK-MEL-5; format: cell-based, human; settings: for IC50: Homo sapiens
Method: (§4) Cells were grown, in T25 culture flasks, to near confluence.
as §2, §3

[4] = system: Caco-2 cells; assay: Alamar Blue cell viability/cytotoxicity assay, Caco-2; format: cell-based, human; settings: for IC50: Homo sapiens; for cell viability reduction: Caco-2, 300 µM
Method: as §4, §2, §3

[5] = system: HepG2 cells; assay: Alamar Blue cell viability/cytotoxicity assay, HepG2; format: cell-based, human; settings: for IC50: Homo sapiens
From the text: as §1, §2, §3

[6] = system: RAW 264.7 cells; assay: Alamar Blue cell viability/cytotoxicity assay, RAW 264.7; format: cell-based; settings: Mus musculus
From the text: as §1, §2, §3

[7] = system: Caco-2, HepG2, A431, HaCaT, SK-MEL-5 and RAW 264.7 cells; assay: Alamar Blue cell viability, all tested cell lines; format: cell-based; settings: up to 1 mM (highest tested concentration)
From the text: To assess the cytotoxic activity of GLY, IMD and IMZ, six cell lines, namely Caco-2 (human epithelial colorectal adenocarcinoma; Cell Lines Service (CLS), Eppelheim, Germany), HepG2 (human hepatocellular carcinoma; ATCC, Rockville, USA), A431 (human epidermoid carcinoma; CLS, Eppelheim, Germany), HaCaT (human keratinocytes, CLS, Eppelheim, Germany), SK-MEL-5 (human skin melanoma; CLS, Eppelheim, Germany), and RAW 264.7 (mouse macrophages, Abelson murine leukaemia virus-induced tumour; CLS, Eppelheim, Germany) cells, were used. […]
Near confluence, all cell lines, except RAW 264.7 cells, were subjected to enzymatic treatment (trypsin-EDTA) for detachment and subculture, as described by Andreani et al. and by Silva et al., which was stopped using complete culture medium (1:1, trypsin:culture media) as soon as cells were detached. […] Once detached from the flasks, cells were gently separated and re-suspended using a Pasteur pipette, counted using an automated cell counter (TC10™, BIORAD, Lisbon, Portugal). […]
Alamar Blue® (AB) assay was performed to assess the in vitro effect of the pesticides on cell viability. […] Then, absorbance was read at 570 and 620 nm using a microplate reader (Multiskan EX; MTX Lab Systems, Inc., Bradenton, FL, USA), and the percentage of AB reduction was calculated according to manufacturers’ instructions, as described. […]

[8] = system: Caco-2 cells; settings: cited from earlier work; for IC50: Caco-2, 24 h
[9] = system: HepG2 cells; settings: cited from earlier work
[10] = system: SK-MEL-2; design: method as in PMID 23535362; settings: SK-MEL-2, 72 h exposure; cited from earlier work
[11] = system: HaCaT cells; settings: cited from earlier work
[12] = cited from earlier work
[13] = Alamar Blue cell viability/cytotoxicity assay, SK-MEL-5; format: cell-based, human; settings: human; SK-MEL-5, 50 µM, 48 h
Method: as §4, §2, §3

[14] = Alamar Blue cell viability/cytotoxicity assay, Caco-2; format: cell-based, human; settings: human, 48 h
Method: as §4, §2, §3

[15] = n-octanol/water; Pubchem and INCHEM; cited from earlier work
[16] = Figure 4A; cited from earlier work
[17] = cited from earlier work; remark: listed apart in the source
[18] = system: CYP3A4; design: method as in PMID 19070657; settings: cited from earlier work

Compound: O=C(O)CNCP(=O)(O)O [Glyphosate, N-phosphonomethyl-glycine]
- IC50 ([1]; A-431, 24 h): > 1000 µM
- IC50 ([1]; A-431, 48 h): > 1000 µM
- IC50 ([2]; 24 h): > 1000 µM
- IC50 ([2]; 48 h): > 1000 µM
- IC50 ([3]; SK-MEL-5, 24 h): > 1000 µM
- IC50 ([3]; SK-MEL-5, 48 h): > 1000 µM
- reduction in cell viability ([3]; SK-MEL-5, 1 mM, 24 h): 23.3%
- reduction in cell viability ([3]; SK-MEL-5, 1 mM, 48 h): 18.7%
- effect on cell viability ([4]; Caco-2, concentrations up to 1 mM, 24 h or 48 h): no significant reduction in cell viability
- IC50 ([4]; Caco-2, 24 h): > 1000 µM
- IC50 ([4]; Caco-2, 48 h): > 1000 µM
- effect on cells ([5]; HepG2, concentrations up to 1 mM): not affected
- IC50 ([5]; HepG2, 24 h): > 1000 µM
- IC50 ([5]; HepG2, 48 h): > 1000 µM
- IC50 ([6]; RAW264.7, 24 h): > 1000 µM
- IC50 ([6]; RAW264.7, 48 h): > 1000 µM
- effect on cell viability [7]: did not reduce cell viability
- effect on cell viability ([7]; listed as GLY): not able to induce cell death below 50%
- concentrations that disrupted Caco-2 monolayers (loss of membrane integrity) ([8]; conversion of mg/mL value): > 59000 µM
- concentrations that disrupted Caco-2 monolayers (loss of membrane integrity) [8]: higher than 10 mg/mL
- effect on cell proliferation ([9]; HepG2, up to 3.5 µg/mL (20.7 µM), 4 h and 24 h): slight increase in cell proliferation
- IC50 [10]: 11 µM
- IC50 ([11]; 18 h exposure): 30000 µM
- solubility in organic solvents [12]: very low solubility in organic solvents

Compound: C=CCOC(Cn1ccnc1)c1ccc(Cl)cc1Cl (centres unmarked) [Imazalil, imazalil]
- IC50 ([1]; A-431, A431, 24 h exposure, mean ± S.D., read-out: IC50): 145 ± 1.7 µM
- IC50 ([1]; A-431, A431, 48 h exposure, mean ± S.D., read-out: IC50): 117 ± 6.5 µM
- IC50 ([2]; 24 h exposure, mean ± S.D., read-out: IC50): 174 ± 15.3 µM
- IC50 ([2]; 48 h exposure, mean ± S.D., read-out: IC50): 120 ± 6.2 µM
- viability at 48 h, 50 µM [13]: ~80%
- IC50 ([3]; SK-MEL-5, 24 h exposure, mean ± S.D., read-out: IC50): 156 ± 9 µM
- IC50 ([3]; SK-MEL-5, 48 h exposure, mean ± S.D., read-out: IC50): 76.7 ± 1.8 µM
- reduction in cell viability ([3]; SK-MEL-5, 50 µM, 48 h): about 20%
- viability at 48 h, 200 µM ([14]; Caco-2, 200 µM): 39.7%
- cell viability reduction ([4]; 24 h): 94.13%
- cell viability reduction ([4]; 48 h): 98.06%
- IC50 ([4]; Caco-2, 24 h exposure, mean ± S.D., read-out: IC50): 254 ± 3.4 µM
- IC50 ([4]; Caco-2, 48 h exposure, mean ± S.D., read-out: IC50): 186 ± 2.27 µM
- concentration at which a significant reduction in cell viability was observed ([5]; HepG2): 50 µM
- IC50 ([5]; HepG2, 24 h exposure, mean ± S.D., read-out: IC50): 93.7 ± 2.2 µM
- IC50 ([5]; HepG2, 48 h exposure, mean ± S.D., read-out: IC50): 47.1 ± 0.5 µM
- IC50 ([6]; RAW264.7, RAW 264.7, 24 h exposure, mean ± S.D., read-out: IC50): 31.3 ± 2.7 µM
- IC50 ([6]; RAW264.7, RAW 264.7, 48 h exposure, mean ± S.D., read-out: IC50): 7.21 ± 4.5 µM
- IC50 ([8]; conversion of µg/mL value, read-out: IC50): ~100 µM
- IC50 [8]: 30 µg/mL
- log Pow [15]: 4.56
- H-donor acceptor count [16]: 2
- pKa [17]: 6.53
- CYP3A4 inhibition [18]: inhibit CYP3A4

Compound: O=[N+]([O-])NC1=NCCN1Cc1ccc(Cl)nc1 [Imidacloprid, imidacloprid]
- IC50 ([1]; A-431, 24 h): 573 ± 10.4 µM
- IC50 ([1]; A-431, 48 h): 389 ± 9.2 µM
- IC50 ([2]; 24 h): 495 ± 19.4 µM
- IC50 ([2]; 48 h): 482 ± 12.9 µM
- IC50 ([3]; SK-MEL-5, 24 h): 507 ± 22.1 µM
- IC50 ([3]; SK-MEL-5, 48 h): 319 ± 11.5 µM
- reduction in cell viability ([3]; SK-MEL-5, 600 µM, 48 h): ~ 88%
- viability at 48 h, 600 µM ([14]; Caco-2, 600 µM, read-out: cell viability (% of control)): 68.5%
- viability at 48 h, 1 mM ([14]; Caco-2, 1 mM, read-out: cell viability (% of control)): 27.3%
- IC50 ([4]; Caco-2, 24 h): > 1000 µM
- IC50 ([4]; Caco-2, 48 h): 832 ± 29.6 µM
- IC50 ([5]; HepG2, 24 h): 624 ± 24.3 µM
- IC50 ([5]; HepG2, 48 h): 620 ± 10.6 µM
- IC50 ([6]; RAW264.7, 24 h): 306 ± 22.4 µM
- IC50 ([6]; RAW264.7, 48 h): 307 ± 22.1 µM
- cell viability ([8]; Caco-2, 96 h, 0.25 µg/mL): 81%
- concentrations cytotoxic / reducing cell viability ([8]; Caco-2, 96 h, conversion of µg/mL value): > 0.98 µM
- concentrations cytotoxic / reducing cell viability ([8]; Caco-2, 96 h, formulation from Bayer): above 0.25 µg/mL
- concentration range dose-dependently reducing cell viability ([9]; HepG2, 24 h): 500 to 2000 µM
- concentration range dose-dependently reducing cell viability ([9]; HepG2, 48 h): 250 to 2000 µM
- concentration reducing cell viability below 50% ([11]; 24 h): 2350 µM
- log Pow [15]: 0.57
- H-donor acceptor count [16]: 4
